This is an account of results in patent US10611740B2, “Aryl dihydro-2H-benzo[b][1,4]oxazine sulfonamide and related compounds for use as agonists of RORγ and the treatment of disease” (Lycera Corporation, priority 2015, dated 2020).

SMILES strings stand for the structures.

For this assay, the target named is T1, Gal4-RORγ-LBD (Homo sapiens, UniProt P51449).
T1 construct: expressed in transfected cells; host or cells: HEK-293 cells (pcDNA3.1neo plasmid)
T1 sequence (P51449 269-508 limits assumed): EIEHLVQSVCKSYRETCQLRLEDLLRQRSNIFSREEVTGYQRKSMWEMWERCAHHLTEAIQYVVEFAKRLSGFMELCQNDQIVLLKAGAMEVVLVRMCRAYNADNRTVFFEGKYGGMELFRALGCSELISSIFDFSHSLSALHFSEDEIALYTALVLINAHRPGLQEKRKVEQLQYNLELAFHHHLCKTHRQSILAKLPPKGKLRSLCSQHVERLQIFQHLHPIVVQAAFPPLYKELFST
Kind of assay: Gal4-RORγ Luciferase Reporter Assay in HEK-293T Cells. The assay is classed as cell-based. The conditions noted are these: HEK-293 cells. As to the method:
Assay procedures and results are described below.
In the following protocol, HEK-293 cells were transfected with a construct comprising the Gal4 DNA binding domain fused to the ligand binding domain of RORγ (Gal4-RORγ-LBD) in a pcDNA3.1neo plasmid, and also with a reporter construct comprising pGL4.31 Gal4-luciferase (Promega). Control cells were prepared similarly using empty pcDNA3.1neo and pGL4.31 vectors.
Trans-IT reagent (Mirus, 60 μL) at room temperature was added drop wise to OptiMEM (Invitrogen, 1.5 ml). This reagent mixture was mixed by inversion then incubated for 5 to 30 minutes at room temperature. It then was added to a solution of both expression vectors (5 μg each), mixed, and incubated at room temperature for about 20 minutes. HEK-293 cells were harvested from incubation flasks by removing the media, treating with TrypLE Express (Invitrogen), and incubating until the cells detached from the bottom of the flask (approximately 2-5 minutes). 10 Million cells were collected by centrifugation and re-suspended in 10 mL of Dulbecco's Modified Eagle Medium, High Glucose (DMEM, Invitrogen) containing 10% Fetal Bovine Serum and 100 IU each of penicillin and streptomycin. The re-suspended cells and the transfection mixture were added to a T75 flask, mixed and incubated overnight at 37° C. and 5% CO2.
The cells were harvested as described above, counted, and centrifuged to obtain the desired number of cells, then re-suspended in complete growth media at 0.75×10^6 cells/mL. The RORγ antagonist, ursolic acid, was added to the cells at a final concentration of 2 μM. Cells were plated at 20 μL of cell suspension/well (10,000-15,000 cells/well) in white tissue culture treated 384 well plates. Test compounds were dissolved at 10 mM in DMSO then diluted into complete growth medium to 5× the final intended test concentration. These drug stock solutions, 5 μL/well were added to the tissue culture plate. The final DMSO concentration was 0.2%. The plates were briefly centrifuged then incubated overnight at 37° C. and 5% CO2. To conduct the assay, the tissue culture plates were allowed to equilibrate to room temperature and One-Glo luciferase reagent (Promega, 25 μL/well) was added. The plates were briefly centrifuged then incubated at room temperature for 10 minutes. The luciferase intensity was read on an Envision plate reader (Perkin Elmer). […] The luciferase signal in the absence of ursolic acid or test compound is defined at 100. The Max Response is the upper plateau in the signal as determined by line-fit using a 4-parameter logistic model in PRISM (GraphPad).
Background: In a reporter assay the amount or activity of a reporter protein is the signal.

Where [1] appears, read: luciferase reporter, with 2 μM ursolic acid.

Turning to `COc1ccnc(-c2ccc3c(c2)N(S(=O)(=O)c2cccc(C(F)(F)F)c2)C[C@H](CCC(=O)O)O3)n1` [Compound 4C, (S)-3-(6-(4-methoxypyrimidin-2-yl)-4-((3-(trifluoromethyl)-phenyl)sulfonyl)-3,4-dihydro-2H-benzo[b][1,4]oxazin-2-yl)propanoic acid], under setting [1], the EC50 lay within 500 to 5000 nM and the “Gal4-RORγ Assay Max Response” value was “** (The symbol “**” indicates a value in the range of greater than 90 to 150)”.

As for `O=C(O)CC[C@H]1CN(S(=O)(=O)c2cccc(C(F)(F)F)c2)c2cc(-c3cc(F)cc(F)c3)c(Cl)cc2O1` [Compound 22L, (S)-3-(7-chloro-6-(3,5-difluoro-phenyl)-4-((3-(trifluoromethyl)-phenyl)sulfonyl)-3,4-dihydro-2H-benzo[b][1,4]oxazin-2-yl)propanoic acid], where the note is “2 μM ursolic acid”, the concentration for a half-maximal effect (EC50) was under 500 nM and the “Gal4-RORγ Assay Max Response” value is given as “** (The symbol “**” indicates a value in the range of greater than 90 to 150)”.

As for `COc1cc(S(=O)(=O)N2C[C@H](CNC(=O)C(C)(C)O)Oc3ccc(-c4cccc(C(F)(F)F)n4)cc32)ccc1F` [Compound 30T, (S)-N-((4-((4-fluoro-3-methoxyphenyl)sulfonyl)-6-(6-(trifluoromethyl)pyridin-2-yl)-3,4-dihydro-2H-benzo[b][1,4]oxazin-2-yl)methyl)-2-hydroxy-2-methylpropanamide], under setting [1], the EC50 is under 500 nM and the “Gal4-RORγ Assay Max Response” value is given as “* (The symbol “*” indicates a value in the range of 25 to 90)”.

Regarding `CC(C)c1cccc(S(=O)(=O)N2C[C@H](CC(C)(C)C(=O)O)Oc3ccc(-c4cc(F)ccc4F)cc32)c1` [Compound 32M, (S)-3-(6-(2,5-difluorophenyl)-4-((3-isopropylphenyl)sulfonyl)-3,4-dihydro-2H-benzo[b][1,4]oxazin-2-yl)-2,2-dimethylpropanoic acid], under setting [1], the 50% effective concentration (EC50) lay within 500 to 5000 nM and the “Gal4-RORγ Assay Max Response” value is given as “** (The symbol “**” indicates a value in the range of greater than 90 to 150)”.

For the compound `COc1cc(S(=O)(=O)N2C[C@H](CNS(=O)(=O)N3CCCC3)Oc3ccc(-c4cc(F)ccc4F)cc32)ccc1F` [Compound 45F, (S)-N-((6-(2,5-difluorophenyl)-4-((4-fluoro-3-methoxyphenyl)sulfonyl)-3,4-dihydro-2H-benzo[b][1,4]oxazin-2-yl)methyl)pyrrolidine-1-sulfonamide], the EC50 (2 μM ursolic acid) was under 500 nM.

Regarding `O=C(O)C1(C[C@H]2CN(S(=O)(=O)c3cc(F)cc(C(F)(F)F)c3)c3cc(-c4cc(F)ccc4F)ccc3O2)COC1` [Compound 51G, (S)-3-((6-(2,5-difluorophenyl)-4-((3-fluoro-5-(trifluoromethyl)-phenyl)sulfonyl)-3,4-dihydro-2H-benzo[b][1,4]oxazin-2-yl)methyl)oxetane-3-carboxylic acid], where the note is “2 μM ursolic acid”, the EC50 is under 500 nM and the “Gal4-RORγ Assay Max Response” value is “** (The symbol “**” indicates a value in the range of greater than 90 to 150)”.

Turning to `O=C(O)C1(C[C@H]2CN(S(=O)(=O)c3cccc(C(F)F)c3)c3cc(-c4cc(F)ccc4F)ccc3O2)COC1` [Compound 51H, (S)-3-((4-((3-(difluoromethyl)-phenyl)sulfonyl)-6-(2,5-difluorophenyl)-3,4-dihydro-2H-benzo[b][1,4]oxazin-2-yl)methyl)oxetane-3-carboxylic acid], where the note is “2 μM ursolic acid”, the EC50 is 500 to 5000 nM and the “Gal4-RORγ Assay Max Response” value was “** (The symbol “**” indicates a value in the range of greater than 90 to 150)”.

Turning to `O=C(O)C1(C[C@H]2CN(S(=O)(=O)c3cc(F)cc(C(F)(F)F)c3)c3cc(-c4cc(F)cc(OC(F)F)c4)ccc3O2)COC1` [Compound 51I, (S)-3-((6-(3-(difluoromethoxy)-5-fluorophenyl)-4-((3-fluoro-5-(trifluoromethyl)phenyl)sulfonyl)-3,4-dihydro-2H-benzo[b][1,4]-oxazin-2-yl)methyl)oxetane-3-carboxylic acid], where the note is “2 μM ursolic acid”, the concentration giving a half-maximal response (EC50) is under 500 nM and the “Gal4-RORγ Assay Max Response” value is “* (The symbol “*” indicates a value in the range of 25 to 90)”.

What is called EC50 is the concentration that produces a half-maximal response. Higher therefore signals a less potent agent.
